Measurements from patent US7862842B2, “Use of cationic preservative in food products” (priority 2001, dated 2011).

Experiments:
[1] = test system: Arthrobacter oxydans ATCC 8010; experiment: minimum inhibitory concentration of LAE; format: cell-based; conditions: Gram + Bacteria
[2] = test system: Bacillus cereus var mycoide ATCC 11778; experiment: minimum inhibitory concentration of LAE; format: cell-based; conditions: Gram + Bacteria
[3] = test system: Bacillus subtilis ATCC 6633; experiment: minimum inhibitory concentration of LAE; format: cell-based; conditions: Gram + Bacteria
[4] = test system: Clostridium perfringens ATCC 77454; format: cell-based; conditions: Gram + Bacteria
[5] = test system: Listeria monocytogenes ATCC 7644; experiment: minimum inhibitory concentration of LAE; format: cell-based; conditions: Gram + Bacteria
[6] = test system: Staphylococcus aureus ATCC 6538; experiment: minimum inhibitory concentration of LAE; format: cell-based; conditions: Gram + Bacteria
[7] = test system: Micrococcus luteus ATCC 9631; experiment: minimum inhibitory concentration of LAE; format: cell-based; conditions: Gram + Bacteria
[8] = test system: Lactobacillus delbrueckii ssp lactis CECT 372; experiment: minimum inhibitory concentration of LAE; format: cell-based; conditions: Gram + Bacteria
[9] = test system: Leuconostoc mesenteroides CETC 912; experiment: minimum inhibitory concentration of LAE; format: cell-based; conditions: Gram + Bacteria
[10] = test system: Alcaligenes faecalis ATCC 8750; experiment: minimum inhibitory concentration of LAE; format: cell-based; conditions: Gram − Bacteria
[11] = test system: Bordetella bronchiseptica ATCC 4617; experiment: minimum inhibitory concentration of LAE; format: cell-based; conditions: Gram − Bacteria
[12] = test system: Citrobacter freundii ATCC 22636; experiment: minimum inhibitory concentration of LAE; format: cell-based; conditions: Gram − Bacteria
[13] = test system: Enterobacter aerogenes CECT 689; experiment: minimum inhibitory concentration of LAE; format: cell-based; conditions: Gram − Bacteria
[14] = test system: Escherichia coli ATCC 8739; experiment: minimum inhibitory concentration of LAE; format: cell-based; conditions: Gram − Bacteria
Escherichia coli 0157H7 = experiment: minimum inhibitory concentration of LAE; format: cell-based; conditions: Gram − Bacteria
[15] = test system: Klebsiella pneumoniae var pneumoniae CECT 178; experiment: minimum inhibitory concentration of LAE; format: cell-based; conditions: Gram − Bacteria
[16] = test system: Proteus mirabilis CECT 170; experiment: minimum inhibitory concentration of LAE; format: cell-based; conditions: Gram − Bacteria
[17] = test system: Pseudomonas aeruginosa ATCC 9027; experiment: minimum inhibitory concentration of LAE; format: cell-based; conditions: Gram − Bacteria
[18] = test system: Salmonella typhimurium ATCC 16028; experiment: minimum inhibitory concentration of LAE; format: cell-based; conditions: Gram − Bacteria
[19] = test system: Serratia marcenses CECT 274; experiment: minimum inhibitory concentration of LAE; format: cell-based; conditions: Gram − Bacteria
[20] = test system: Mycobacterium phlei ATCC 41423; experiment: minimum inhibitory concentration of LAE; format: cell-based; conditions: listed under Gram − Bacteria
[21] = test system: Aspergillus niger ATCC14604; experiment: minimum inhibitory concentration of LAE; format: cell-based; conditions: Fungi
[22] = test system: Aureobasidium pullulans ATCC 9348; experiment: minimum inhibitory concentration of LAE; format: cell-based; conditions: Fungi
[23] = test system: Gliocadium virens ATCC 4645; experiment: minimum inhibitory concentration of LAE; format: cell-based; conditions: Fungi
[24] = test system: Chaetonium globosum ATCC 6205; experiment: minimum inhibitory concentration of LAE; format: cell-based; conditions: Fungi
[25] = test system: Penicillium chrysogenum CECT 2802; experiment: minimum inhibitory concentration of LAE; format: cell-based; conditions: Fungi
[26] = test system: Penicillium funiculosum CECT 2914; experiment: minimum inhibitory concentration of LAE; format: cell-based; conditions: Fungi
[27] = test system: Candida albicans ATCC 10231; experiment: minimum inhibitory concentration of LAE; format: cell-based; conditions: Yeast
[28] = test system: Rhodotorula rubra CECT 1158; experiment: minimum inhibitory concentration of LAE; format: cell-based; conditions: Yeast
[29] = test system: Saccharomyces cerevisiae ATCC 9763; experiment: minimum inhibitory concentration of LAE; format: cell-based; conditions: Yeast
Aerobe Bacteria [30] = experiment: microbiological evolution in semi-preserved codfish in oil; format: cell-based; conditions: LAE 100 ppm, 4° C.
Protocol: (§1) The determination of the microbiological population is carried out according to the ISO standards.
(§2) The samples are treated by dilution in buffer peptone with the appropriate neutralising agent of the preservative. The culture media used for counting the microorganisms are: Soya triptone agar (32-35° C., 48 hours) for the determination of mesophilic bacteria; Sabouraud agar with chloramfenicol (25° C., 3-5 days) for fungi and yeast; Violet red bile glucose agar (32-35° C., 24 hours) for enterobacteria; Soya triptone agar (17° C., 5 days) for psychrotrophic bacteria.
(§3) The sample LAE was added to the oil assayed at a concentration of 100 ppm and its microbiological evolution at 4° C. was compared against a control.

Mould & yeast [31] = experiment: as above; format: cell-based; conditions: LAE 100 ppm, 4° C.
Protocol: as §1, §2, §3

Aerobe Bacteria [32] = experiment: evolution of bacteria in a chicken product; format: cell-based; conditions: LAE 150 ppm, 10° C.
Protocol: as §1, §2
(§4) The sample LAE was added to at a concentration of 150 ppm and the evolution of aerobe and psychrotrophic bacteria at 10° C. was compared against a control.

Psychro. Bacteria = experiment: evolution of bacteria in a chicken product; format: cell-based; conditions: LAE 150 ppm, 10° C.
Protocol: as §1, §2, §4

Aerobe Bacteria [33] = experiment: microbiological evolution in a carbonated orange beverage; format: cell-based; conditions: LAE 100 ppm, 17° C.
Protocol: as §1, §2
(§5) The sample LAE was added to at a concentration of 100 ppm and its microbiological evolution at 17° C. was compared against a control.

Mould & yeast [34] = experiment: as above; format: cell-based; conditions: LAE 100 ppm, 17° C.
Protocol: as §1, §2, §5

Aerobe Bacteria [35] = experiment: microbiological evolution in a blackberry juice; format: cell-based; conditions: LAE 60 ppm, 34° C.
Protocol: as §1, §2
(§6) The sample LAE was added to at a concentration of 60 ppm and its microbiological evolution at 34° C. was compared against a control.

Mould & yeast [36] = experiment: microbiological evolution in a blackberry juice; format: cell-based; conditions: LAE 60 ppm, 34° C.
Protocol: as §1, §2, §6

Aerobe Bacteria [37] = experiment: microbiological evolution in custard; format: cell-based; conditions: LAE 100 ppm, 25° C.
Protocol: as §1, §2
(§7) The sample LAE was added to at a concentration of 100 ppm and its microbiological evolution at 25° C. was compared against a control.

Anaerobe Bacteria = experiment: microbiological evolution in custard; format: cell-based; conditions: LAE 100 ppm, 25° C.
Protocol: as §1, §2, §7

Aerobe Bacteria [38] = experiment: microbiological evolution in fairy cakes; format: cell-based; conditions: LAE 80 ppm, 25° C.
Protocol: as §1, §2
(§8) The sample LAE was added to at a concentration of 80 ppm and its microbiological evolution at 25° C. was compared against a control.

Mould & yeast [39] = experiment: microbiological evolution in fairy cakes; format: cell-based; conditions: LAE 80 ppm, 25° C.
Protocol: as §1, §2, §8

Aerobe Bacteria [40] = experiment: microbiological evolution in veal stew; format: cell-based; conditions: LAE 100 ppm, 10° C.
Protocol: as §1, §2
(§9) The sample LAE was added to at a concentration of 100 ppm and its microbiological evolution at 10° C. was compared against a control.

Enterobacteria [41] = experiment: microbiological evolution in veal stew; format: cell-based; conditions: LAE 100 ppm, 10° C.
Protocol: as §1, §2, §9

Mould & yeast [42] = experiment: microbiological evolution in veal stew; format: cell-based; conditions: LAE 100 ppm, 10° C.
Protocol: as §1, §2, §9

Aerobe Bacteria [43] = experiment: microbiological evolution in ketchup; format: cell-based; conditions: LAE 100 ppm, 25° C.
Protocol: as §1, §2, §7

Enterobacteria [44] = experiment: microbiological evolution in ketchup; format: cell-based; conditions: LAE 100 ppm, 25° C.
Protocol: as §1, §2, §7

Mould & yeast [45] = experiment: microbiological evolution in ketchup; format: cell-based; conditions: LAE 100 ppm, 25° C.
Protocol: as §1, §2, §7

metabolism in rats = format: in vivo
toxicological studies = format: in vivo; conditions: animals and humans

CCCCCCCCCCCC(=O)N[C@@H](CCCN=C(N)N)C(=O)OCC.Cl [LAE, ethyl ester of the lauramide of the arginine monohydrochloride]
M.I.C. [1]: 64 ppm
M.I.C. [2]: 32 ppm
M.I.C. [3]: 16 ppm
M.I.C. [4]: 16 ppm
M.I.C. [5]: 10 ppm
M.I.C. [6]: 32 ppm
M.I.C. [7]: 128 ppm
M.I.C. [8]: 16 ppm
M.I.C. [9]: 32 ppm
M.I.C. [10]: 64 ppm
M.I.C. [11]: 128 ppm
M.I.C. [12]: 64 ppm
M.I.C. [13]: 32 ppm
M.I.C. [14]: 32 ppm
M.I.C. (Escherichia coli 0157H7): 20 ppm
M.I.C. [15]: 32 ppm
M.I.C. [16]: 32 ppm
M.I.C. [17]: 64 ppm
M.I.C. [18]: 32 ppm
M.I.C. [19]: 32 ppm
M.I.C. [20]: 2 ppm
M.I.C. [21]: 32 ppm
M.I.C. [22]: 16 ppm
M.I.C. [23]: 32 ppm
M.I.C. [24]: 16 ppm
M.I.C. [25]: 128 ppm
M.I.C. [26]: 16 ppm
M.I.C. [27]: 16 ppm
M.I.C. [28]: 16 ppm
M.I.C. [29]: 32 ppm
Aerobe Bacteria count (Aerobe Bacteria [30]; 0 days): 7.6 · 10^3 cfu/g
Aerobe Bacteria count (Aerobe Bacteria [30]; 14 days): 1.0 · 10^4 cfu/g
Aerobe Bacteria count (Aerobe Bacteria [30]; 43 days): 8.5 · 10^4 cfu/g
Mould & yeast count (Mould & yeast [31]; 0 days): 3.0 · 10^2 cfu/g
Mould & yeast count (Mould & yeast [31]; 14 days): 5.4 · 10^3 cfu/g
Mould & yeast count (Mould & yeast [31]; 43 days): 8.2 · 10^3 cfu/g
Aerobe Bacteria count (Aerobe Bacteria [32]; 0 days): 1.2 · 10^5 cfu/g
Aerobe Bacteria count (Aerobe Bacteria [32]; 14 days): 4.2 · 10^5 cfu/g
Aerobe Bacteria count (Aerobe Bacteria [32]; 43 days): 6.1 · 10^5 cfu/g
Psychro. Bacteria count (Psychro. Bacteria; 0 days): 3.0 · 10^4 cfu/g
Psychro. Bacteria count (Psychro. Bacteria; 14 days): 7.1 · 10^4 cfu/g
Psychro. Bacteria count (Psychro. Bacteria; 43 days): 6.8 · 10^4 cfu/g
Aerobe Bacteria count (Aerobe Bacteria [33]; 0 days): 4.3 · 10^2 cfu/g
Aerobe Bacteria count (Aerobe Bacteria [33]; 14 days): 1.0 · 10^2 cfu/g
Mould & yeast count (Mould & yeast [34]; 0 days): <10 cfu/g
Mould & yeast count (Mould & yeast [34]; 14 days): <10 cfu/g
Aerobe Bacteria count (Aerobe Bacteria [35]; 0 days): 4.0 · 10^2 cfu/g
Aerobe Bacteria count (Aerobe Bacteria [35]; 14 days): 2.4 · 10^3 cfu/g
Mould & yeast count (Mould & yeast [36]; 0 days): <10 cfu/g
Mould & yeast count (Mould & yeast [36]; 14 days): <10 cfu/g
Aerobe Bacteria count (Aerobe Bacteria [37]; 0 days): <10 cfu/g
Aerobe Bacteria count (Aerobe Bacteria [37]; 5 days): 1.1 · 10^3 cfu/g
Anaerobe Bacteria count (Anaerobe Bacteria; 0 days): <10 cfu/g
Anaerobe Bacteria count (Anaerobe Bacteria; 5 days): 4.1 · 10^2 cfu/g
Aerobe Bacteria count (Aerobe Bacteria [38]; 0 months): <10 cfu/g
Aerobe Bacteria count (Aerobe Bacteria [38]; 3 months): 1.1 · 10^2 cfu/g
Mould & yeast count (Mould & yeast [39]; 0 months): <10 cfu/g
Mould & yeast count (Mould & yeast [39]; 3 months): <10 cfu/g
Aerobe Bacteria count (Aerobe Bacteria [40]; 0 days): <10 cfu/g
Aerobe Bacteria count (Aerobe Bacteria [40]; 14 days): <10 cfu/g
Enterobacteria count (Enterobacteria [41]; 0 days): <10 cfu/g
Enterobacteria count (Enterobacteria [41]; 14 days): <10 cfu/g
Mould & yeast count (Mould & yeast [42]; 0 days): <10 cfu/g
Mould & yeast count (Mould & yeast [42]; 14 days): <10 cfu/g
Aerobe Bacteria count (Aerobe Bacteria [43]; 0 days): <10 cfu/g
Aerobe Bacteria count (Aerobe Bacteria [43]; 14 days): 2.2 · 10^3 cfu/g
Enterobacteria count (Enterobacteria [44]; 0 days): <10 cfu/g
Enterobacteria count (Enterobacteria [44]; 14 days): <10 cfu/g
Mould & yeast count (Mould & yeast [45]; 0 days): <10 cfu/g
Mould & yeast count (Mould & yeast [45]; 14 days): 1.4 · 10^1 cfu/g
absorption and metabolism (metabolism in rats): fast absorption and metabolisation into naturally-occurring amino acids and the fatty acid lauric acid
toxicity (toxicological studies): completely harmless to animals and humans
